According to ChEMBL document CHEMBL4002552, “Discovery of novel piperidine-substituted indolylarylsulfones as potent HIV NNRTIs via structure-guided scaffold morphing and fragment rearrangement” (Eur J Med Chem, 2017):
Calls of active or inactive are those of the source. The calls are words filed in the database; no cut-off is given here.

Tests used:
[1] = system: Human immunodeficiency virus 1; assay: Antiviral activity against HIV1 RES056 expressing reverse transcriptase mutant infected in human MT4 cells assessed as protection against virus-induced cytopathic effect after 5 days by MTT assay; type: functional, cell-based; details: Human immunodeficiency virus 1, RES056, MT4, 120 h
[2] = Inhibition of recombinant wild type HIV1 reverse transcriptase using poly (A).oligo (dT)15 as template/primer assessed as decrease in biotin-dUTP incorporation after 1 hr by ELISA; set-up: species or system Human immunodeficiency virus 1
[3] = system: Human immunodeficiency virus 1; assay: Antiviral activity against HIV1 expressing reverse transcriptase E138K mutant infected in human MT4 cells assessed as protection against virus-induced cytopathic effect after 5 days by MTT assay; type: functional, cell-based; details: Human immunodeficiency virus 1, MT4, 120 h
[4] = system: Human immunodeficiency virus 1; assay: microbe, parasite or virus in culture; details: Human immunodeficiency virus 1, MT4, 120 h
Description: Antiviral activity against HIV1 expressing reverse transcriptase L100I mutant infected in human MT4 cells assessed as protection against virus-induced cytopathic effect after 5 days by MTT assay

[5] = system: Human immunodeficiency virus 1; type: functional, cell-based; details: Human immunodeficiency virus 1, MT4, 120 h
[6] = system: Human immunodeficiency virus 1; type: functional, cell-based; details: Human immunodeficiency virus 1, MT4, 120 h; remark: listed apart in the source
[7] = system: Human immunodeficiency virus 1; type: functional, cell-based; details: Human immunodeficiency virus 1, MT4, 120 h; remark: listed apart in the source
[8] = Cytotoxicity against human MT4 cells assessed as decrease in cell viability after 5 days by MTT assay; type: cell-based
[9] = in vitro; details: human, MT4 cells
Description: Selectivity index, ratio of CC50 for human MT4 cells to EC50 for HIV1 expressing reverse transcriptase Y188L mutant

[10] = in vitro; details: human, MT4 cells; remark: listed apart in the source
Description: Selectivity index, ratio of CC50 for human MT4 cells to EC50 for HIV1 expressing reverse transcriptase F227L/V106A double mutant

[11] = system: Human immunodeficiency virus 1; assay: Antiviral activity against HIV1 expressing reverse transcriptase K103N mutant infected in human MT4 cells assessed as protection against virus-induced cytopathic effect after 5 days by MTT assay; type: functional, cell-based; details: Human immunodeficiency virus 1, MT4, 120 h
[12] = system: Human immunodeficiency virus 1; assay: Resistance ratio of EC50 for HIV1 expressing reverse transcriptase L100I mutant to EC50 for HIV1 3B expressing wild type reverse transcriptase; type: functional
[13] = system: Human immunodeficiency virus 1; assay: Potency index, ratio of nevirapine EC50 to test compound EC50 for HIV1 3B expressing wild type reverse transcriptase; type: functional
[14] = in vitro; details: human, MT4 cells; remark: listed apart in the source
Description: Selectivity index, ratio of CC50 for human MT4 cells to EC50 for HIV1 3B expressing wild type reverse transcriptase

[15] = system: Human immunodeficiency virus 1; assay: Potency index, ratio of delavirdine EC50 to test compound EC50 for HIV1 3B expressing wild type reverse transcriptase; type: functional
[16] = system: Human immunodeficiency virus 1; assay: microbe, parasite or virus in culture; details: Human immunodeficiency virus 1, 3B, MT4, 120 h
Description: Antiviral activity against HIV1 3B expressing wild type reverse transcriptase infected in human MT4 cells assessed as protection against virus-induced cytopathic effect after 5 days by MTT assay

[17] = in vitro; details: human, MT4 cells; remark: listed apart in the source
Description: Selectivity index, ratio of CC50 for human MT4 cells to EC50 for HIV1 expressing reverse transcriptase E138K mutant

[18] = in vitro; details: human, MT4 cells; remark: listed apart in the source
Description: Selectivity index, ratio of CC50 for human MT4 cells to EC50 for HIV1 expressing reverse transcriptase Y181C mutant

[19] = system: Human immunodeficiency virus 1; assay: Resistance ratio of EC50 for HIV1 expressing reverse transcriptase K103N mutant to EC50 for HIV1 3B expressing wild type reverse transcriptase; type: functional
[20] = system: Human immunodeficiency virus 2; assay: Antiviral activity against HIV2 ROD infected in human MT4 cells assessed as protection against virus-induced cytopathic effect after 5 days by MTT assay; type: functional, cell-based; details: ISOLATE ROD
[21] = in vitro; details: human, MT4 cells; remark: listed apart in the source
Description: Selectivity index, ratio of CC50 for human MT4 cells to EC50 for HIV1 expressing reverse transcriptase L100I mutant

[22] = in vitro; details: human, MT4 cells; remark: listed apart in the source
Description: Selectivity index, ratio of CC50 for human MT4 cells to EC50 for HIV1 RES056 expressing reverse transcriptase mutant

[23] = in vitro; details: human, MT4 cells; remark: listed apart in the source
Description: Selectivity index, ratio of CC50 for human MT4 cells to EC50 for HIV1 expressing reverse transcriptase K103N mutant

Row | Structure (SMILES) | EC50 [1] [nM] | IC50 [2] [nM] | EC50 [3] [nM] | EC50 [4] [nM] | EC50 [5] [nM] | EC50 [6] [nM] | EC50 [7] [nM] | CC50 at 120 h [8] [nM] | selectivity ratio [9] | selectivity ratio [10] | EC50 [11] [nM] | selectivity ratio [14] | EC50 [16] [nM] | selectivity ratio [17] | selectivity ratio [18] | selectivity ratio [21] | selectivity ratio [23] | also measured
1 | Cc1cc(C#N)cc(C)c1Oc1nc(Nc2ccc(C#N)cc2)nc(N)c1Br [ETRAVIRINE] | 34 | 1100 | 11 | 9 | 15 | 14 | – | – | – | – | – | – | – | – | – | – | – | –
2 | Cc1cc(C)cc(S(=O)(=O)c2c(C(=O)NC3CCN(CCO)CC3)[nH]c3ccc(Br)cc23)c1 | > 6300 | – | 140 | 17 | > 6300 | 130 | 220 | 6300 | < 1 | 28 | 84 | 1000 | 6 | 46 | 48 | 368 | 74 | Ratio EC50 [12]: 2.8; Ratio EC50 [13]: 20; Ratio EC50 [15]: 4; Ratio EC50 [19]: 14; Activity [20]: inactive; selectivity ratio [22]: < 1
3 | O=C1Nc2ccc(Cl)cc2[C@@](C#CC2CC2)(C(F)(F)F)O1 [EFAVIRENZ] | 110 | – | – | – | 92 | 5 | 76 | > 6300 | – | – | 98 | – | – | – | – | – | – | –
4 | CCOC(=O)CCN1CCC(CNC(=O)c2[nH]c3ccc(Cl)cc3c2S(=O)(=O)c2cc(C)cc(C)c2)CC1 | – | 10100 | – | – | – | – | – | 19200 | – | – | – | – | – | – | – | – | – | –
5 | Cc1cc(C)cc(S(=O)(=O)c2c(C(=O)NCC3CCN(CCO)CC3)[nH]c3ccc(Cl)cc23)c1 | > 6700 | – | 300 | 110 | > 6700 | 560 | 620 | 6700 | < 1 | 11 | 320 | 205 | 32 | 22 | 12 | 59 | 21 | Activity [20]: inactive; selectivity ratio [22]: < 1
6 | CC(C)Nc1cccnc1N1CCN(C(=O)c2cc3cc(NS(C)(=O)=O)ccc3[nH]2)CC1 [DELAVIRDINE] | ≥ 37000 | – | 70 | 3500 | 550 | 1900 | 2600 | > 43800 | 81 | 17 | 2500 | 1880 | 24 | 634 | 23 | 13 | 18 | –
7 | Cc1ccnc2c1NC(=O)c1cccnc1N2C1CC1 [NEVIRAPINE] | 2200 | 2800 | 160 | – | 4400 | 3800 | 3500 | > 15000 | – | – | 3600 | – | – | – | – | – | – | –
